From paper PMC4387075 (Neuropharmacology, 2015)
“Also recorded” adds a separate entry of the source. Read-outs that look alike come from different tables or passages of the source.

Experiments:
[1] = molecular target: mGlu1 receptors (Rattus norvegicus, UniProt P23385); assay: PI hydrolysis; format: cell-based; details: for PI hydrolysis Emax, % glu: efficacy as percentage of glutamate efficacy, mean +/- 95% confidence interval; for effect of antagonist on PI hydrolysis stimulated by quisqualate, DHPG and ACPD: agonists 100 μM, JNJ16259685 300 μM, CPCCOEt 200 μM, MPEP 10 μM; for agonist bias between PI hydrolysis and neuroprotection: from Emax values of both responses (Figure 7)
[2] = tested on: cerebellar granule cells; assay: Cell viability; details: for effect of agonist on viability of granule cells in K5: K5, 16 hours, MTT; for effect of antagonist on NMDA-induced increase in granule cell viability: 1 mM NMDA in K5, MK801 1 μM, JNJ16259685 300 μM; for IC50: read-out: IC50 for inhibition of glutamate neuroprotection, 1 mM glutamate in K5; for maximum effect on granule cell viability: percent of viability in K25 cultures, K5 media, 16 hours
[3] = tested on: mGlu1 receptor-expressing CHO cells; details: ref Emery et al., 2012, cited from earlier work; for ERK phosphorylation or protection: transfected CHO cells; for protection from serum starvation: mGlu1 receptor-expressing CHO cells
[4] = tested on: mGlu1 receptor; details: mGlu1 receptor-expressing CHO cells; ref Emery et al., 2012; cited from earlier work
[5] = read-out: PI hydrolysis EC50, mean (95% confidence interval)

mGlu1 receptors, sequence (P23385 19-1199): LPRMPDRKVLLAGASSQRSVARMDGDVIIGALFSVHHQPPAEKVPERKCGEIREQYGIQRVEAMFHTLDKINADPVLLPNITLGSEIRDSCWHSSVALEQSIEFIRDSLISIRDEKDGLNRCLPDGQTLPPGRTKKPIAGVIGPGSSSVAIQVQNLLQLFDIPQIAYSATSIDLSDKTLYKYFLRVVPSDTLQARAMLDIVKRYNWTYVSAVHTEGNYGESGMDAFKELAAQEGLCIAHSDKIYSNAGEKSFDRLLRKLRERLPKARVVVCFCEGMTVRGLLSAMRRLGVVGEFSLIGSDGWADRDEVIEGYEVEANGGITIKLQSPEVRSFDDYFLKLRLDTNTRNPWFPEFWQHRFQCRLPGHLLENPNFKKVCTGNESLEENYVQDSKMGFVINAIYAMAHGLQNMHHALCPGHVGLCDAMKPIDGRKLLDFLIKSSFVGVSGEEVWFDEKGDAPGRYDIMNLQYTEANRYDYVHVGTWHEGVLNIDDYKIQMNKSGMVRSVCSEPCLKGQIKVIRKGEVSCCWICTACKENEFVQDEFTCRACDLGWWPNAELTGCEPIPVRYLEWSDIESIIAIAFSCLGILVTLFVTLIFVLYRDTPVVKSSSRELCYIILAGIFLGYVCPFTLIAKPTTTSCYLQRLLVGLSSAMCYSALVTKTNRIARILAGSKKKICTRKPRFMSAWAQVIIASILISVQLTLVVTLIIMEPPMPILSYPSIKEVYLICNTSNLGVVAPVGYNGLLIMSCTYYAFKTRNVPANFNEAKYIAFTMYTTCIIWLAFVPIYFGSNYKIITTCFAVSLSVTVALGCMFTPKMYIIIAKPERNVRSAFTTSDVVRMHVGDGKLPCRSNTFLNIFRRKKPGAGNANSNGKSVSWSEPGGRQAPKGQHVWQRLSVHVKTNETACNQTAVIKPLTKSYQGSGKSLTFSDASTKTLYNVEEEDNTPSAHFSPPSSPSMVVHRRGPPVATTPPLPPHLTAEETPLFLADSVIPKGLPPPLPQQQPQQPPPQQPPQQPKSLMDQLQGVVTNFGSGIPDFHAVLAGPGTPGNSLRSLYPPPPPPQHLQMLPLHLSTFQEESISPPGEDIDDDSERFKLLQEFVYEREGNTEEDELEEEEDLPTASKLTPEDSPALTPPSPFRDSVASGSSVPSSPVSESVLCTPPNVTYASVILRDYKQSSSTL

With `N[C@@H](CS(=O)O)C(=O)O` [Cysteine sulfinic acid] the “PI hydrolysis Emax, % glu” value [1] was 82 ± 10 % glu, the EC50 [1, 5] was 29 µM and the “effect of agonist on viability of granule cells in K5” value (“effect of agonist” below) [2] was “prevented”.
For `Cc1cccc(C#Cc2ccccc2)n1` [MPEP], the “effect of antagonist on PI hydrolysis stimulated by quisqualate, DHPG and ACPD” value [1] was “no effect”.
For `COC1CCC(C(=O)c2ccc3nc4c(cc3c2)CCCO4)CC1` (stereo not drawn) [JNJ16259685], the “effect of antagonist on PI hydrolysis stimulated by quisqualate, DHPG and ACPD” value [1] was “significantly decreased”, the “effect of antagonist on NMDA-induced increase in granule cell viability” value [2] was “blocked” and the IC50 [2] was 19.8 µM.
In the case of `N[C@@H](CS(=O)(=O)O)C(=O)O` [Cysteic acid], the “PI hydrolysis Emax, % glu” value [1] is reported as 87 ± 4.2 % glu, the EC50 [1, 5] is reported as 22 µM and the “effect of agonist” value [2] is reported as “prevented”.
With `NC(C(=O)O)c1cc(O)cc(O)c1` (stereo not drawn) [DHPG, 3,5-dihydroxyphenylglycine] the EC50 [1] was 23 µM, the “agonist type for PI hydrolysis compared to glutamate” value (“agonist type … compared to glutamate” below) [1] was “partial agonists” and the “PI hydrolysis at 100 μM agonist compared to Locke's media only” value [1] was “significant increase”. The “PI hydrolysis Emax, % glu” value [1] was 69 ± 3.7 % glu, the “agonist bias between PI hydrolysis and neuroprotection” value [1] was “completely biased towards PI hydrolysis” and the “ERK phosphorylation or protection” value [3] was “do not stimulate”. The “effect of agonist” value [2] was “not significantly increased”.
In the case of `O=C(O)CCC(=O)O` [succinic acid], the “efficacy for PI hydrolysis” value [4] is given as “no efficacy” and the “protection from serum starvation” value [3] is given as “able to protect”.
For `N[C@@H](CC(=O)O)C(=O)O` [Aspartate, aspartate], the EC50 [1] was 19 µM, the “PI hydrolysis Emax, % glu” value [1] was 103 ± 7.8 % glu and the “agonist bias between PI hydrolysis and neuroprotection” value [1] was “balanced agonists”. The “effect of agonist” value [2] was “prevented”.
For `N[C@@H](CCS(=O)(=O)O)C(=O)O` [Homocysteic acid], the “PI hydrolysis Emax, % glu” value [1] was 84 ± 7.4 % glu, the EC50 [1, 5] was 29 µM and the “effect of agonist” value [2] was “prevented”.
For `O=C(O)CCCC(=O)O` [glutaric acid], the “efficacy for PI hydrolysis” value [4] is given as “no efficacy” and the “protection from serum starvation” value [3] is given as “able to protect”.
With `N[C@@]1(C(=O)O)CC[C@@H](C(=O)O)C1` [ACPD, (1S,3R)-1-aminocyclopentane-1,3-dicarboxylic acid] the “agonist type … compared to glutamate” value [1] was “partial agonists”, the “PI hydrolysis at 100 μM agonist compared to Locke's media only” value [1] was “significant increase” and the “PI hydrolysis Emax, % glu” value [1] was 66 ± 1.4 % glu. The “agonist bias between PI hydrolysis and neuroprotection” value [1] was “completely biased towards PI hydrolysis”, the “effect of agonist” value [2] was “not significantly increased” and the “maximum effect on granule cell viability” value [2] was 49 ± 5%.
For `CN[C@H](CC(=O)O)C(=O)O` [NMDA, N-methyl-D-aspartate], the “maximum effect on granule cell viability” value [2] was 73%.
For `N[C@@H](CCC(=O)O)C(=O)O` [Glutamate, glutamate], the “effect of agonist” value [2] was “prevented” and the “maximum effect on granule cell viability” value [2] was 65%.
In the case of `N[C@@H](Cn1oc(=O)[nH]c1=O)C(=O)O` [Quisqualate, quisqualate], the “agonist type … compared to glutamate” value [1] is reported as “full agonist”, the “PI hydrolysis at 100 μM agonist compared to Locke's media only” value [1] is reported as “significant increase” and the “PI hydrolysis Emax, % glu” value [1] is reported as 109 ± 7.8 % glu. For the same molecule, the “agonist bias between PI hydrolysis and neuroprotection” value [1] was “completely biased towards PI hydrolysis”, the “ERK phosphorylation or protection” value [3] was “do not stimulate” and the “effect of agonist” value [2] was “not significantly increased; also recorded: no efficacy”.
“7-(Hydroxyimino)cyclopropa[b]chromen-1a-carboxylate ethyl ester [CPCCOEt]” showed an IC50 [2] of 123 µM.
For `C[C@]12N[C@H](Cc3ccccc31)c1ccccc12` [MK801], the “effect of antagonist on NMDA-induced increase in granule cell viability” value [2] was “significantly inhibited”.
